“Also recorded” adds a separate entry of the source.
How the values were obtained:
[1] = system: proteasome genes; details: Burington et al., 2009; cited from earlier work
[2] = system: proteasome genes; assay: Proteasome gene expression changes after short-term exposure (test-dosing) to bortezomib, dexamethasone, thalidomide, melphalan; assay type: in vivo, human; details: for proteasome gene expression change after short-term exposure: test-dosing in myeloma patients
Text: In earlier studies, pharmacogenomics was used to identify genes altered by short-term exposure of therapy-naïve cases to thalidomide and dexamethasone. Little to no overlap was found in the genes altered by these agents with those altered by bortezomib.

Nc1cccc2c1CN(C1CCC(=O)NC1=O)C2=O (stereo not drawn) [lenalidomide]
hyperactivation of proteasome genes after short-term drug [1]: not associated with hyperactivation of proteasome genes

N[C@@H](Cc1ccc(N(CCCl)CCCl)cc1)C(=O)O [melphalan]
changes for some proteasome genes (e.g. PSMB3 and PSMD14) compared to the changes after bortezomib ([2]; FIG. 10, short-term exposure): reversed | change of PSMB2 and PSMD14 compared to the changes after bortezomib ([2]; melphalan test-dosing, Total Therapy 4): inversely changed | proteasome gene expression change after short-term exposure [2]: most proteasome genes did not change

O=C1CCC(N2C(=O)c3ccccc3C2=O)C(=O)N1 (stereo not drawn) [thalidomide]
proteasome gene expression change after short-term exposure [2]: complete lack of activation; also recorded: did not change | hyperactivation of proteasome genes after short-term drug [1]: not associated with hyperactivation of proteasome genes
